The assay deals with Aβ formation in human astroglioma cells (U 373) transfected with human APP751 (U373-K10). In words: Inhibition of Aβ formation in medium of APP751-overexpressing U373-K10 cells (ELISA). The assay is classed as cell-based. Particulars: U373 MG. The source says:
The compounds according to the invention are characterized in that they inhibit the process of the formation of Aβ or its release from cells. This property was investigated according to the test described below.
The inhibition of Aβ formation was investigated in the medium of a cell line overexpressing APP751. For this purpose, human astroglioma cells (U 373, ATCC) were stably transfected with the gene for human APP751 under the control of a CMV promoter (vector pRC-CMV). A clone with a high APP751 expression (U373-K10) was selected. In order to carry out the assay the cells are plated out in 96-well plates (Falcon) in Dulbecco's-Minimal-Essential medium (DMEM, Bio-Whittaker) with 10% FCS and cultivated to confluence at 37° C./5% CO2.
The substances to be tested are first dissolved in 100% DMSO and then diluted to the test concentration in culture medium, so that the DMSO concentration of the test solution is always below 0.5%.
150 μl of the test solution are added per well to a confluent culture plate which has previously been washed once with DMEM, and pre-incubated for about 16 hours. This solution is replaced by 150 μl of fresh test solution after 1 wash and incubated again for 4 hours.
100 μl of this four-hour supernatant are transferred to an ELISA plate (Nunc) coated with the antibody 6E10 (specific for Aβ1-16, Senetek), and incubated overnight at 4° C. The Aβ is determined the next day by means of the alkaline phosphatase-conjugated antibody 6B10, which is specific for Aβ32-40.
A general note: ELISA stands for enzyme-linked immunosorbent assay.

SMILES strings stand for the structures.

As for `O=c1[nH]c2ccccc2n1C1CCN(CCCc2c(-c3ccccc3)nc3ccccn23)CC1` [Example 12, 1-{1-[3-(2-phenylimidazo[1,2-a]pyridin-3-yl)propyl]piperidin-4-yl}-1,3-dihydrobenzimidazol-2-one], the concentration for half-maximal inhibition (IC50) (commonly the concentration that inhibits the measured activity by half) was found to be 12 µM.

As to `O=c1[nH]c2ccccc2n1C1CCN(CCCc2c(-c3ccc(Cl)cc3)nc3ccccn23)CC1` [Example 13, 1-{1-[3-(2-p-chlorophenylimidazo[1,2-a]pyridin-3-yl)propyl]piperidin-4-yl}-1,3-dihydrobenzimidazol-2-one], the IC50 was 15 µM.

Compound `Clc1ccc(-c2nc3ccccn3c2CCCN2CCN(Cc3ccccc3)CC2)cc1` [Example 14, 3-[3-(4-benzylpiperazin-1-yl)propyl]-2-(4-chlorophenyl)imidazo[1,2-a]pyridine] yielded a 50% inhibitory concentration (IC50) of 30 µM. Compared with the last compound, the IC50 is about 2-fold higher.

Compound `Clc1ccc(CN2CCN(CCCc3c(-c4ccc(Cl)cc4)nc4ccccn34)CC2)cc1` [Example 20, 3-{3-[4-(4-chlorobenzyl)piperazin-1-yl]propyl}-2-(4-chlorophenyl)imidazo[1,2-a]pyridine] came in with a concentration for half-maximal inhibition (IC50) of 35 µM.

In the case of `O=C(/C=C/c1c(-c2ccccc2)nc2ccccn12)N1CCC(n2c(=O)[nH]c3ccccc32)CC1` [Example 21], the midpoint of inhibition, the IC50, lay at 20 µM.

For the origin of these results see patent publication US6514969B2, “β-amyloid inhibitors, processes for preparing them, and their use in pharmaceutical compositions” (Boehringer Ingelheim Pharma KG, priority 2000, dated 2003).
